Reference: patent publication US11505558B1, “Antiviral heterocyclic compounds” (Enanta Pharmaceuticals, Inc., priority 2019, dated 2022)

What was measured:
[1] = tested on: recombinant HMPV CAN97-83 (MPV-GFP1); assay: HMPV antiviral assay (MPV-GFP1 eGFP fluorescence in Vero E6 cells); type: cell-based; conditions: human metapneumovirus, Vero C1008, 120 h, read-out: HMPV EC50
Experimental: HMPV antiviral activity was evaluated using a recombinant version of HMPV CAN97-83 engineered to contain the coding sequence for enhanced green fluorescence protein (eGFP) in the 3′ end of the virus genome (MPV-GFP1, ViraTree). Vero E6 cells ([…]) were seeded at a density of 12,000 cells/100 μL/well into 96-well cell plates one day prior to the assay. On the day of screening, the cell culture medium was aspirated from the wells and cells were washed twice with serum-free Eagle's Modified Essential Medium (EMEM, ATCC #) containing 1% penicillin-streptomycin (Invitrogen) (SF-EMEM). Cell washes were performed by dispensing 100 μL SF-EMEM per well and immediately aspirating the wash medium from the well. Following the second wash step, serum-free OptiMEM (Invitrogen, Cat No.) (SF-OptiMEM) containing 0.5 μg/mL TPCK-Trypsin (VENDOR) and 1% penicillin-streptomycin was added to the cells at 50 μL/well. Compounds were added into the 96-well plates using a JANUS automated liquid handling system (VENDOR). Compounds were initially diluted 1:50 into an intermediate 96-well plate containing SF-OptiMEM prior to transfer to the assay plate (25 μL/well). Each of the test compounds were tested in duplicate wells at final concentrations starting from 8 μM or 2 μM using ½ stepwise dilutions for a total of 8 points. Virus infection was performed by preparing a working stock of MPV-GFP1 at a multiplicity of infection (MOI) equal to 0.05/25 μL and aliquoting 25 μL of virus inoculum to the compound and positive control wells. SF-OptiMEM was added (25 μL/well) to the appropriate wells to serve as a virus-free negative control for the assay. The final DMSO concentration of all wells is 0.5%. Plates were incubated at 32° C., 5% CO2 for 5 days.
After 5 days incubation, eGFP fluorescence intensity was measured at […] using a Spectramax i3X plate reader (VENDOR). Percent viral inhibition was calculated using the following equation: y=[[…]−(XQ/XP)]×100 Where XQ is the fluorescence intensity measured in a well containing recombinant MPV-GFP1-infected, compound-treated cells and XP is the average fluorescence intensity measured in the wells containing untreated cells infected with recombinant virus. EC50 values were then calculated by non-linear regression using a four parameter curve logistic equation. The curve fit model employed was XLFit Dose Response One Site Model 200: y=(A+(B/(1+((x/C)^D)))) Where A is the minimum y value, B is the maximum y value, C is the log EC50 value, and D is the slope factor. […] EC50 ranges are as follows: A<0.5 μM; B>0.5 μM.

[2] = tested on: genotype A, "Long" strain RSV; assay: RSV-A assay (CPE, ATPlite readout in Hep-2 cells); type: cell-based; conditions: human respiratory syncytial virus, HEp-2, Hep-2 cells, genotype A "Long" strain RSV, MOI 0.1; read-out: Human RSV-A (“Long” strain) EC50
In short: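 Protection from RSV-induced cytopathic effect, measured as ATPlite luminescence after 5 days, gave EC50 values. Assay used genotype A Long strain at MOI 0.1 on Hep-2 cells seeded at 8,000/well in DMEM growth media with 10% FBS; compounds tested as 2-fold dilutions in duplicate.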

| SMILES | EC50 [1] | EC50 [2] |
| --- | --- | --- |
| C[C@]1(C(N)=O)COc2c1cc([C@@](O)(CNC(=O)c1ccc3ncccc3c1)C(F)(F)F)nc2-c1ccc(F)cc1 [Example 269] | < 500 nM | < 200 nM |
| COc1cc(C(=O)NC[C@](O)(c2cc3c(c(-c4ccc(F)c(Cl)c4)n2)OC[C@]3(C)C(N)=O)C(F)(F)F)ccc1OC1CC1 [Example 88] | < 500 nM | < 200 nM |
| C[C@]1(C(N)=O)COc2c1cc([C@@](O)(CNC(=O)c1cc(Nc3cnccn3)c3ncccc3c1)C(F)(F)F)nc2-c1ccc(F)cc1 [Example 341] | > 500 nM | < 200 nM |
| Cc1cnc2c(NC(=O)c3ncco3)cc(C(=O)NC[C@](O)(c3cc4c(c(-c5ccc(F)cc5)n3)OC[C@]4(C)C(N)=O)C(F)(F)F)cc2c1 [Example 561] | < 500 nM | < 200 nM |
| CNC(=O)[C@@]1(C)COc2c1cc([C@@](O)(CNC(=O)c1cc(OC)c3ncccc3c1)C(F)(F)F)nc2-c1ccc(F)cc1 [Example 46] | < 500 nM | < 200 nM |
| Cc1cnc2c(Nc3ncncn3)cc(C(=O)NC[C@](O)(c3cc4c(c(-c5ccc(F)cc5)n3)OC[C@]4(C)C(N)=O)C(F)(F)F)cc2c1 [Example 611] | > 500 nM | < 200 nM |
| C[C@]1(C(N)=O)COc2c1cc([C@](O)(CNC(=O)c1cc(OC3CC3)c3ncccc3c1)C(F)(F)F)nc2-c1ccc(F)c(Cl)c1 [Example 79] | < 500 nM | < 200 nM |
| COc1cc(C(=O)NC[C@](O)(c2cc3c(c(-c4ccc(F)c(Cl)c4)n2)OC[C@]3(C)C(N)=O)C(F)(F)F)cc2cc(C)cnc12 [Example 257] | < 500 nM | < 200 nM |
| COc1nc2c(OC(C)C)cc(C(=O)NC[C@](O)(c3cc4c(c(-c5ccc(F)cc5)n3)OC[C@]4(C)C(N)=O)C(F)(F)F)cc2s1 [Example 444] | > 500 nM | < 200 nM |
| C[C@]1(C(N)=O)COc2c1cc([C@](O)(CNC(=O)c1cc(OC3CC3)c3ncccc3c1)C(F)(F)F)nc2-c1ccc(C#N)cc1 [Example 83] | > 500 nM | < 200 nM |
| Cc1ccc(-c2nc([C@@](O)(CNC(=O)c3ccc4nn(C)cc4c3)C(F)(F)F)cc3c2OC[C@]3(C)C(N)=O)cc1 [Example 641] | > 500 nM | < 200 nM |
| Cc1cnc2c(Nc3cnccn3)cc(C(=O)NC[C@](O)(c3cc4c(c(-c5ccc(F)cc5)n3)OC[C@]4(C)C(N)=O)C(F)(F)F)cc2c1 [Example 547] | > 500 nM | < 200 nM |
| Cc1cc2cc(C(=O)NC[C@](O)(c3cc4c(c(-c5ccc(F)c(Cl)c5)n3)OC[C@]4(C)C(N)=O)C(F)(F)F)ccc2nn1 [Example 617] | < 500 nM | < 200 nM |
| CCNC(=O)[C@@]1(C)COc2c1cc([C@@](O)(CNC(=O)c1cc(OC)c3ncccc3c1)C(F)(F)F)nc2-c1ccc(F)cc1 [Example 56] | < 500 nM | < 200 nM |
| C[C@]1(C(N)=O)COc2c1cc([C@](O)(CNC(=O)c1cc(OC3CC3)c3ncccc3c1)C(F)(F)F)nc2-c1csc2c(F)cccc12 [Example 81] | < 500 nM | < 200 nM |
| COc1cc(C(=O)NC[C@](O)(c2cc3c(c(-c4ccc(F)cc4)n2)OC[C@]3(C)C(N)=O)C(F)(F)F)cc2ccc(C)nc12 [Example 222] | < 500 nM | < 200 nM |
| COc1cc(C(=O)NC[C@](O)(c2cc3c(c(-c4ccc(F)cc4)n2)OC[C@]3(C)C(N)=O)C2CC2)cc2cc(C(F)(F)F)cnc12 [Example 535] | < 500 nM | < 200 nM |
| Cc1nc(C(=O)Nc2cc(C(=O)NC[C@](O)(c3cc4c(c(-c5ccc(F)cc5)n3)OC[C@]4(C)C(N)=O)C(F)(F)F)cc3cccnc23)co1 [Example 397] | > 500 nM | < 200 nM |

| SMILES | EC50 [1] | EC50 [2] |
| --- | --- | --- |
| Cc1cnc2c(Oc3ncccn3)cc(C(=O)NC[C@](O)(c3cc4c(c(-c5ccc(F)cc5)n3)OC[C@]4(C)C(N)=O)C(F)(F)F)cc2c1 [Example 615] | > 500 nM | < 200 nM |
| Cc1cnc2c(NC(=O)c3nc(C)co3)cc(C(=O)NC[C@](O)(c3cc4c(c(-c5ccc(F)cc5)n3)OC[C@]4(C)C(N)=O)C(F)(F)F)cc2c1 [Example 623] | > 500 nM | < 200 nM |
| Cc1cnc2c(NC(=O)NCC(C)(C)O)cc(C(=O)NC[C@](O)(c3cc4c(c(-c5ccc(F)cc5)n3)OC[C@]4(C)C(N)=O)C(F)(F)F)cc2c1 [Example 551] | > 500 nM | < 200 nM |
| C[C@]1(C(N)=O)COc2c1cc([C@@](O)(CNC(=O)c1ccc3nnccc3c1)C(F)(F)F)nc2-c1ccc(F)cc1 [Example 230] | > 500 nM | < 200 nM |
| C[C@]1(C(N)=O)COc2c1cc([C@@](O)(CNC(=O)c1ccc(OC3CC3)c(-c3cccc(C(F)(F)F)n3)c1)C(F)(F)F)nc2-c1ccc(F)cc1 [Example 110] | > 500 nM | < 200 nM |
| COc1nccc(C(=O)NC[C@](O)(c2cc3c(c(-c4ccc(F)cc4)n2)OC[C@]3(C)CNCC2CC2)C(F)(F)F)n1 [Example 34] | > 500 nM | > 200 nM |
| C[C@]1(C(N)=O)COc2c1cc([C@@](O)(CNC(=O)c1ccc(OC3CC3)c(OC3CC3)c1)C(F)(F)F)nc2-c1ccc(F)c(Cl)c1 [Example 90] | < 500 nM | < 200 nM |
| C[C@]1(C(N)=O)COc2c1cc([C@@](O)(CNC(=O)c1cc(OC3CC3)c3ncc(Cl)cc3c1)C(F)(F)F)nc2-c1ccc(F)cc1 [Example 521] | < 500 nM | < 200 nM |
| Cc1cnc2c(NC(=O)C3(F)CC3)cc(C(=O)NC[C@](O)(c3cc4c(c(-c5ccc(F)cc5)n3)OC[C@]4(C)C(N)=O)C(F)(F)F)cc2c1 [Example 553] | < 500 nM | < 200 nM |
| CC(C)(O)[C@H](F)CNC(=O)[C@@]1(C)COc2c1cc([C@@](O)(CNC(=O)c1cc(OC3CC3)c3ncccc3c1)C(F)(F)F)nc2-c1ccc(F)cc1 [Example 459] | > 500 nM | < 200 nM |
| C[C@]1(C(N)=O)COc2c1cc([C@@](O)(CNC(=O)c1cc(OC(F)(F)F)c3nc(N)sc3c1)C(F)(F)F)nc2-c1ccc(F)cc1 [Example 541] | > 500 nM | < 200 nM |
| Cc1cnc2c(NC(=O)C3CC3)cc(C(=O)NC[C@](O)(c3cc4c(c(-c5ccc(F)cc5)n3)OC[C@]4(C)C(N)=O)C(F)(F)F)cc2c1 [Example 416] | > 500 nM | < 200 nM |
| COc1cc(C(=O)NC[C@](O)(c2cc3c(c(-c4ccc(F)c(Cl)c4)n2)OC[C@]3(C)C(N)=O)C(F)(F)F)cc2sc(N)nc12 [Example 433] | < 500 nM | < 200 nM |
| COc1cc(C(=O)NC[C@](O)(c2cc3c(c(-c4ccc(F)cc4)n2)OC[C@]3(C)C(=O)NC2COC2)C(F)(F)F)cc2cccnc12 [Example 52] | < 500 nM | < 200 nM |
| COc1cc(C(=O)NC[C@](O)(c2cc3c(c(-c4ccc(F)cc4)n2)OC[C@]3(C)C(N)=O)C(F)(F)F)cc2c1OCCC2 [Example 508] | < 500 nM | > 200 nM |
| Cc1cnc2ccc(C(=O)NC[C@](O)(c3cc4c(c(-c5ccc(F)cc5)n3)OC[C@]4(C)C(N)=O)C(F)(F)F)cc2c1 [Example 524] | < 500 nM | < 200 nM |
| COc1cc(C(=O)NCC(O)(c2cc3c(c(-c4ccc(F)cc4)n2)OC[C@]3(C)C(=O)NC2CC2)C(F)(F)F)cc2cccnc12 (stereo partly drawn) [Example 27] | < 500 nM | < 200 nM |
| C[C@]1(C(N)=O)COc2c1cc([C@@](O)(CNC(=O)c1cc(OC(F)F)c3nc(N)sc3c1)C1CC1)nc2-c1ccc(F)cc1 [Example 539] | < 500 nM | < 200 nM |
